Experimental data published in patent US9192589B2, “Chalcones as enhancer of antimicrobial agents” (priority 2009, dated 2015).
In brackets after ≈: the same amount, converted by molar mass. Like-named read-outs stand apart in the source and are kept apart here.

Key:
A. Viscosus biofilm = experiment: Inhibition of single species biofilm formation (BEC50, crystal violet); type: cell-based, Actinomyces viscosus; parameters: unit not given here; conditions: 24 hours; for BEC50 alone: agent alone
Protocol: (§1) Actinomyces viscosus (ATCC#43146) was grown in trypticase soy broth supplemented with 0.6% yeast extract (TSB-YE) at 37° C., static culture. For mixed species assays, the source of bacteria was a continuous culture chemostat inoculated with A. viscosus, Lactobacillus casei (ATCC #334), Streptococcus oxalis (ATCC #35037), Fusobacterium nucleatum (ATCC #10953), and Veilonella parvula (ATCC #17745). This mixed culture was maintained in a specialized complex medium in a continuous culture chemostat at 37° C.
To assess the bioenhancing ability of CK-4, inhibition of single species biofilm formation tests were conducted. Actives of interest were plated in the first column of a sterile 384-well culture plate and serial twofold dilutions were performed across the plate in 0.5× TSB. First generation cultures of A. Viscosus bacteria were grown overnight in TSB-YE. Cultures were diluted to an OD610˜0.2 in 0.5×TSB and plated in the wells containing serial dilutions of actives. Plates were incubated for 24 hours at 37° C. to allow growth and biofilm formation to occur.
Following incubation, supernatants were removed from the plate and remaining biofilms were stained with 0.03% Grain's crystal violet. Stained plates were read on a Perkin Elmer EnVision microplate reader for absorbance at 590 nm.

Actinomyces viscosus = experiment: MIC of antibacterial agents alone and in combination with CK-4; type: cell-based; conditions: A. viscosus
Excerpt: (§2) The checkerboard method is the most frequently used method to access the antimicrobial combinations in vitro. The term “checkerboard” refers to the pattern (of tubes or microtiter plate wells) formed by multiple dilutions of two drugs being tested (Eliopoulos G M, Moellering R C. Antimicrobial Combinations, in: Antibiotics in Laboratory Medicine: USA: Williams & Wilkins). In the present study the checkerboard consisted of columns in which each tube (or well) contains the same amount of the standard drug (antibacterial/antifungal/anti-TB/antiviral) being diluted along the x-axis and rows in which each tube (or well) contains the same amount of the potentiator being diluted on the y-axis. As a result each square in the checkerboard (which represents one tube/well or plate) contained a unique combination of the standard drug and potentiator. The concentration range of standard drug in the present study was 64 μg/ml to 0.03 μg/ml, whereas the potentiator was tested in the range of 500 μg/ml to 0.2 μg/ml. This checkerboard technique can be performed with liquid or semisolid (agar) media.
(§3) In the agar method the agar (Mueller Hinton agar, Middlebrook 7H10 agar) was autoclaved and allowed to cool to 55° C. to 50° C. The combination of the standard drug and the potentiator was added to the agar. Serial two fold dilutions of each of standard drug and the potentiator were prepared in appropriate solvents. In order to maintain the desired concentrations of both agar and drugs, and to rule out the effect of solvent, the volume of solvent (containing standard drug or potentiator) added to agar was kept small (i.e. ≦5% of the total volume). After the agar plates have been poured and allowed to dry, the bacteria to be tested were applied to the surface of agar with a replicating device designed to deliver a standard inoculum (approx 10^4 cfu/spot). The plates were incubated at 37° C. for 24 hrs (3 weeks in case of Mycobacterium tuberculosis).
(§4) The above-mentioned checkerboard was also performed with liquid media in a microtiter plate format. This method was used to study the combination of antibacterial/antifungal/antiviral drugs with potentiator.
(§5) Minimum Inhibitory Concentration (MIC) of triclosan alone and in combination with the above mentioned chalcone compound was performed against Streptococcus mutans, Actinomyces viscosus and Fusobacterium nucleatum, using method described in the study design.
(§6) Minimum Inhibitory Concentration (MIC) of magnolol alone and in combination with the above mentioned chalcone compound was performed against Streptococcus mutans, Actinomyces viscosus and Fusobacterium nucleatum, using method described in the study design.
(§7) Minimum Inhibitory Concentration (MIC) of honokiol alone and in combination with the above mentioned chalcone compound was performed against Streptococcus mutans, Actinomyces viscosus and Fusobacterium nucleatum, using method described in the study design.

Streptococcus mutans = experiment: as above; type: cell-based; conditions: S. mutans
Excerpt: as §2, §3, §4, §5, §6, §7

Fusobacterium nucleatum = experiment: as above; type: cell-based; conditions: F. nucleatum
Excerpt: as §2, §3, §4, §5, §6, §7

[1] = tested on: Streptococcus mutans, Actinomyces viscosus and Fusobacterium nucleatum; experiment: Fold reduction in MIC over the three oral bacteria; type: cell-based; conditions: in combination with CK-4; over S. mutans, A. viscosus and F. nucleatum
Excerpt: as §2, §3, §4, §5
Minimum Inhibitory Concentration (MIC) of magnolol alone and in combination with the above mentioned chalcone compound was performed against Streptococcus mutans, Actinomyces viscosus and Fusobacterium nucleatum, using method described in the study design. […]

A. viscosus = experiment: MIC assay using A. viscosus as reference organism (96-well, OD610); type: cell-based; conditions: Actinomyces viscosus, compound alone, 0.5x TSB, overnight 37° C.
Protocol: as §1

[2] = tested on: Staphylococcus aureus ATCC 29213; experiment: Systemic infection model of mice, ED50 of ciprofloxacin; type: in vivo, Swiss albino mice; conditions: ATCC29213, iv, after seven days of observation
Protocol: Efficacy testing will be done using standard procedures. Primary efficacy evaluation may be done using the murine septicemia model (Yun et al. Journal of Antimicrob. Chemother., 2002, 46: 3071-3074). In this model a supra-lethal dose of bacteria is used to challenge the rodents. Treatment is initiated, varying either or both time(s) of treatment and dose of antibiotic. In these experiments both the antibiotic and the efflux pump inhibitor doses are varied.
The study was conducted to see the in vivo response of ciprofloxacin in combination with the above-mentioned efflux pump inhibitor. The Swiss albino mice were infected intravenously with Staphylococcus aureus ATCC 29213 (10^7 CFU/mouse). The infected mice were divided in groups and each group consisted of 6 mice. The treatment consisted of one dose immediately after the infection followed by the next dose after a gap of 6 hrs. The result was recorded as number of survivals each day.

[3] = tested on: Staphylococcus aureus 1199B (NorA overexpressing); experiment: Checkerboard MIC of ciprofloxacin alone and in combination with chalcone; type: cell-based; conditions: for MIC: Staphylococcus aureus
[4] = tested on: Staphylococcus aureus SA-K2191 (MsrA overexpressing); experiment: Checkerboard MIC of erythromycin alone and in combination with chalcone; type: cell-based; conditions: for MIC: Staphylococcus aureus
[5] = tested on: Staphylococcus aureus SA-K2192 (TetK overexpressing); experiment: Checkerboard MIC of tetracycline alone and in combination with chalcone; type: cell-based
[6] = Actinomyces viscosus, agent alone, read-out: MIC
[7] = Streptococcus mutans, agent alone, read-out: MIC
[8] = Fusobacterium nucleatum, agent alone, read-out: MIC
[9] = in combination with CK-4 at 50 μg/ml
[10] = in combination with CK-14 at 50 μg/ml

Compound | BEC50 alone (A. Viscosus biofilm) | BEC50 with CK-4 (A. Viscosus biofilm) | MIC (Actinomyces viscosus; with CK-4 6.25 μg/ml) [µg/mL] | MIC (Actinomyces viscosus; with CK-4 12.5 μg/ml) [µg/mL] | MIC (Actinomyces viscosus; with CK-4 25 μg/ml) [µg/mL] | MIC (Actinomyces viscosus; [6]) [µg/mL] | MIC (Streptococcus mutans; with CK-4 6.25 μg/ml) [µg/mL] | MIC (Streptococcus mutans; with CK-4 12.5 μg/ml) [µg/mL] | MIC (Streptococcus mutans; with CK-4 25 μg/ml) [µg/mL] | MIC (Streptococcus mutans; [7]) [µg/mL] | MIC (Fusobacterium nucleatum; with CK-4 6.25 μg/ml) [µg/mL] | MIC (Fusobacterium nucleatum; with CK-4 12.5 μg/ml) [µg/mL] | MIC (Fusobacterium nucleatum; with CK-4 25 μg/ml) [µg/mL] | MIC (Fusobacterium nucleatum; [8]) [µg/mL] | reduction in MIC in combination with chalcone compound [1] | other results
CCCCc1ccc(O)c(-c2cc(CCCC)ccc2O)c1 [Butyl magnolol, 5,5′-dibutylbiphenyl-2,2′-diol] | 0.65 | 0.24 | 4.0 | 2.0 | 1.0 | 4 | 4.0 | 2.0 | 1.0 | 4 | 2.0 | 2.0 | 1.0 | 2 | Two to four-fold | 
COc1cc(/C=C/C(=O)c2ccccc2)ccc1O [CK-4, 3-(4′-Hydroxy-3′-methoxy-phenyl)-1-phenyl-prop-2-ene-1-one] |  |  |  |  |  |  |  |  |  |  |  |  |  |  |  | MIC (A. viscosus): > 100 µg/mL
C=CCc1ccc(O)c(-c2ccc(O)c(CC=C)c2)c1 [Honokiol, honokiol] | 5.21 | 2.60 | 2.0 | 1.0 | 0.5 | 4 | 2.0 | 1.0 | 0.5 | 4 | 1.0 | 1.0 | 0.5 | 2 | Four to eight-fold | 
C=CCc1ccc(O)c(-c2cc(CC=C)ccc2O)c1 [Magnolol, magnolol] | 3.91 | 1.95 | 1.0 | 0.5 | 0.25 | 4 | 2.0 | 1.0 | 0.5 | 4 | 1.0 | 1.0 | 0.5 | 2 | Up to sixteen-fold | 
CCCc1ccc(O)c(-c2ccc(O)c(CCC)c2)c1 [Propyl Honokiol, propyl honokiol] | 0.49 | 0.65 |  |  |  |  |  |  |  |  |  |  |  |  |  | 
Oc1cc(Cl)ccc1Oc1ccc(Cl)cc1Cl [Triclosan, triclosan] | 1.95 | 0.98 | 2.0 | 1.0 | 0.5 | 4 | 2.0 | 1.0 | 0.5 | 4 | 1.0 | 1.0 | 0.5 | 2 | Four to eight-fold | MIC (A. viscosus): 3.5 µg/mL (≈ 12.1 µM)
O=C([O-])CC(O)(CC(=O)[O-])C(=O)[O-].O=C([O-])CC(O)(CC(=O)[O-])C(=O)[O-].[Zn+2].[Zn+2].[Zn+2] [Zinc Citrate] | 41.67 | 20.83 |  |  |  |  |  |  |  |  |  |  |  |  |  | 
O=C(O)c1cn(C2CC2)c2cc(N3CCNCC3)c(F)cc2c1=O [ciprofloxacin] |  |  |  |  |  |  |  |  |  |  |  |  |  |  |  | ED50 ([2]; ciprofloxacin alone, mice infected i.v. with S. aureus ATCC 29213, two doses 6 hrs apart): 9.2 mg/kg; ED50 ([2]; in combination with the CK-4, mice infected i.v. with S. aureus ATCC 29213, two doses 6 hrs apart): 5.86 mg/kg; MIC ([3]; read-out: MIC (μg/ml) of ciprofloxacin for Staphylococcus aureus 1199B, ciprofloxacin alone): 8 µg/mL; MIC ([3]; read-out: MIC (μg/ml) of ciprofloxacin for Staphylococcus aureus 1199B, in combination with CK-4 6.25 μg/ml): 4 µg/mL; MIC ([3]; read-out: MIC (μg/ml) of ciprofloxacin for Staphylococcus aureus 1199B, in combination with CK-4 12.5 μg/ml): 2 µg/mL; MIC ([3]; read-out: MIC (μg/ml) of ciprofloxacin for Staphylococcus aureus 1199B, in combination with CK-4 25.0 μg/ml): 1 µg/mL; MIC ([3]; read-out: MIC (μg/ml) of ciprofloxacin for Staphylococcus aureus 1199B, in combination with CK-4 50.0 μg/ml): 0.5 µg/mL; reduction in MIC of ciprofloxacin [3, 9]: Up to sixteen-fold; reduction in MIC of ciprofloxacin [3, 10]: Up to eight-fold
CC[C@H]1OC(=O)[C@H](C)[C@@H](O[C@H]2C[C@@](C)(OC)[C@@H](O)[C@H](C)O2)[C@H](C)[C@@H](O[C@@H]2O[C@H](C)C[C@H](N(C)C)[C@H]2O)[C@](C)(O)C[C@@H](C)C(=O)[C@H](C)[C@@H](O)[C@]1(C)O [erythromycin] |  |  |  |  |  |  |  |  |  |  |  |  |  |  |  | MIC ([4]; read-out: MIC (μg/ml) of erythromycin for Staphylococcus aureus SA-K2191, erythromycin alone): 64 µg/mL; MIC ([4]; read-out: MIC (μg/ml) of erythromycin for Staphylococcus aureus SA-K2191, in combination with CK-4 6.25 μg/ml): 64 µg/mL; MIC ([4]; read-out: MIC (μg/ml) of erythromycin for Staphylococcus aureus SA-K2191, in combination with CK-4 12.5 μg/ml): 32 µg/mL; MIC ([4]; read-out: MIC (μg/ml) of erythromycin for Staphylococcus aureus SA-K2191, in combination with CK-4 25.0 μg/ml): 16 µg/mL; MIC ([4]; read-out: MIC (μg/ml) of erythromycin for Staphylococcus aureus SA-K2191, in combination with CK-4 50.0 μg/ml): 8 µg/mL; reduction in MIC of erythromycin [4, 9]: Up to eight-fold; reduction in MIC of erythromycin [4, 10]: Up to four-fold
CN(C)[C@@H]1C(O)=C(C(N)=O)C(=O)[C@@]2(O)C(O)=C3C(=O)c4c(O)cccc4[C@@](C)(O)[C@H]3C[C@@H]12 [tetracycline] |  |  |  |  |  |  |  |  |  |  |  |  |  |  |  | MIC ([5]; read-out: MIC (μg/ml) of tetracycline for Staphylococcus aureus SA-K2192, in combination with CK-4 6.25 μg/ml): 32 µg/mL; MIC ([5]; read-out: MIC (μg/ml) of tetracycline for Staphylococcus aureus SA-K2192, in combination with CK-4 12.5 μg/ml): 16 µg/mL; MIC ([5]; read-out: MIC (μg/ml) of tetracycline for Staphylococcus aureus SA-K2192, in combination with CK-4 25.0 μg/ml): 8 µg/mL; MIC ([5]; read-out: MIC (μg/ml) of tetracycline for Staphylococcus aureus SA-K2192, in combination with CK-4 50.0 μg/ml): 4 µg/mL; MIC ([5]; read-out: MIC (μg/ml) of tetracycline for Staphylococcus aureus SA-K2192, tetracycline alone): 32 µg/mL
Catechin | 26.04 | 26.04 |  |  |  |  |  |  |  |  |  |  |  |  |  | 
